In patent publication US9079866B2, “Flap modulators” (JANSSEN PHARMACEUTICA NV, priority 2013, dated 2015) one finds Ki data, which are given here for 41 compounds.

Structures can show the parent of a compound that is named as a salt.

human FLAP, sequence (P20292 whole entry): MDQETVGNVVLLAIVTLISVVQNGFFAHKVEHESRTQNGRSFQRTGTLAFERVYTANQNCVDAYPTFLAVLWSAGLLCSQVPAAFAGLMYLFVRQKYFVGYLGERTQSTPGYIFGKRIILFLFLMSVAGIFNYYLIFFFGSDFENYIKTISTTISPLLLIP

The target of the first experiment is human FLAP (Homo sapiens (Human), UniProt P20292). Nature of the experiment: FLAP binding assay (HTRF format). The following applies: human FLAP wild type, HTRF format; average of two plates, duplicates. Here is the method:
The ability of the compounds of the present invention to treat a FLAP-mediated disease and/or disorder, or associated symptoms or complications thereof, was determined using the following procedures. Binding assay data represent the average value obtained from two different assay plates, with samples run in duplicate on each plate. Human whole blood assay data represent a single replicate on an assay plate using whole blood from at least one healthy donor.
Data are expressed as a HTRF ratio.
What is called Ki is the equilibrium dissociation constant of an inhibitor or competing ligand from its target. Compound `CN(C)S(=O)(=O)Nc1ccccc1-c1ccc(-c2cnc(N)nc2)c(F)c1` [Example 311, N′-[4′-(2-Aminopyrimidin-5-yl)-3′-fluorobiphenyl-2-yl]-N,N-dimethylsulfamide] returned a Ki of 747 nM.

In turn, `Nc1ncc(-c2ccc(-c3ccccc3S(=O)(=O)C3CCS(=O)(=O)CC3)cc2F)cn1` [Example 316, 5-{2′-[(1,1-Dioxidotetrahydro-2H-thiopyran-4-yl)sulfonyl]-3-fluorobiphenyl-4-yl}pyrimidin-2-amine hydrochloride] showed an inhibition constant (Ki) of 746 nM. Compound `Nc1cnc(S(=O)(=O)c2ccccc2-c2ccc(-c3cnc(N)nc3)c(F)c2)nc1` [Example 339, 5-{2′-[(5-Aminopyrimidin-2-yl)sulfonyl]-3-fluorobiphenyl-4-yl}pyrimidin-2-amine hydrochloride] registered a Ki of 2500 nM. On the same count and under the same terms, for `CS(=O)(=O)c1ccccc1-c1ccc(-c2ccc(N)nc2)c(F)c1` [Example 341, 5-(3-Fluoro-2′-(methylsulfonyl)-[1,1′-biphenyl]-4-yl)pyridin-2-amine] the value was greater than 10000 nM; for `C[C@@H](CO)NS(=O)(=O)c1ccccc1-c1ccc(-c2ccc(N)nc2)c(F)c1` [Example 347, (S)-4′-(6-Aminopyridin-3-yl)-3′-fluoro-N-(1-hydroxypropan-2-yl)-[1,1′-biphenyl]-2-sulfonamide], 77 nM.

With `CC(C)Sc1ncc(C(F)(F)F)cc1-c1ccc(-c2cnc3[nH]ccc3n2)c(F)c1` [Example 394, 2-(2-Fluoro-4-{2-[(1-methylethyl)sulfanyl]-5-(trifluoromethyl)pyridin-3-yl}phenyl)-5H-pyrrolo[2,3-b]pyrazine], the Ki is greater than 10000 nM.

Staying with this experiment, now noted: read-out: FLAP Binding wild type HTRF Ki.
For `Nc1ncc(-c2ccc(-c3ccccc3S(=O)(=O)c3ncncc3N)cc2F)cn1` [Example 337, 5-{2′-[(5-Aminopyrimidin-4-yl)sulfonyl]-3-fluorobiphenyl-4-yl}pyrimidin-2-amine hydrochloride], the Ki was found to be 2500 nM.

The experiment is the same for the next values; noted with them: wild type FLAP, HTRF format.
With `Fc1cc(-c2cccnc2OCC(F)(F)F)ccc1-c1cnc2[nH]ccc2n1` [Example 397, 2-{2-Fluoro-4-[2-(2,2,2-trifluoroethoxy)pyridin-3-yl]phenyl}-5H-pyrrolo[2,3-b]pyrazine], the Ki was greater than 10000 nM. Turning to `Nc1cnc(-c2ccc(-c3cccnc3OCC3CCNC3)cc2F)cn1` (centres unmarked) [Example 407, 5-{2-Fluoro-4-[2-(pyrrolidin-3-ylmethoxy)pyridin-3-yl]phenyl}pyrazin-2-amine], the Ki is greater than 10000 nM. Same read-out and setting: for `Nc1ncc(-c2ccc(-c3cccnc3N)cc2F)cn1` [Example 409, 5-[4-(2-Aminopyridin-3-yl)-2-fluorophenyl]pyrimidin-2-amine] the value was greater than 10000 nM. Same read-out and setting: for `N#Cc1nc(-c2ccc(-c3ccccc3C(=O)N3CCOCC3)cc2F)cnc1N` [Example 416, 3-Amino-6-[3-fluoro-2′-(morpholin-4-ylcarbonyl)biphenyl-4-yl]pyrazine-2-carbonitrile] the value was 1250 nM; for `CC(C)(C)NS(=O)(=O)c1ccccc1-c1ccc(-c2ncc3cc[nH]c3n2)c(F)c1` [Example 418, N-tert-Butyl-3′-fluoro-4′-(7H-pyrrolo[2,3-d]pyrimidin-2-yl)biphenyl-2-sulfonamide], 1250 nM. Still for that read-out and setting: for `CC(=O)Nc1ccccc1-c1ccc(-c2cnc(N)cn2)c(F)c1` [Example 459, N-[4′-(5-Aminopyrazin-2-yl)-3′-fluorobiphenyl-2-yl]acetamide] the value was greater than 10000 nM; for `NC(=O)Nc1ccccc1-c1ccc(-c2cnc(N)cn2)c(F)c1` [Example 460, 1-[4′-(5-Aminopyrazin-2-yl)-3′-fluorobiphenyl-2-yl]u rea], greater than 10000 nM; for `Cc1c(-c2ccccc2NS(C)(=O)=O)ccc(-c2cnc(N)cn2)c1F` [Example 463, N-[4′-(5-Aminopyrazin-2-yl)-3′-fluoro-2′-methylbiphenyl-2-yl]methanesulfonamide], 982 nM. For `Nc1cnc(-c2ccc(-c3ccccc3F)cc2F)cn1` [Example 468, 5-(2′,3-Difluorobiphenyl-4-yl)pyrazin-2-amine], affinity was put at a Ki of 620 nM. The same measure, in the same setting: for `Cc1ccccc1-c1ccc(-c2cnc(N)cn2)c(F)c1` [Example 470, 5-(3-Fluoro-2′-methylbiphenyl-4-yl)pyrazin-2-amine] the value was 620 nM; for `Nc1cnc(-c2ccc(-c3ccccc3OC(F)(F)F)cc2F)cn1` [Example 475, 5-[3-Fluoro-2′-(trifluoromethoxy)biphenyl-4-yl]pyrazin-2-amine], 750 nM; for `Nc1cnc(-c2ccc(-c3c(F)cccc3F)cc2F)cn1` [Example 478, 5-(2′,3,6′-Trifluorobiphenyl-4-yl)pyrazin-2-amine], 250 nM. In turn, `CCc1ccccc1-c1ccc(-c2cnc(N)cn2)c(F)c1` [Example 480, 5-(2′-Ethyl-3-fluorobiphenyl-4-yl)pyrazin-2-amine] displayed an inhibition constant (Ki) of 354 nM. Same read-out and setting: for `CC(C)c1ccccc1-c1ccc(-c2cnc(N)cn2)c(F)c1` [Example 482, 5-[3-Fluoro-2′-(1-methylethyl)biphenyl-4-yl]pyrazin-2-amine] the value was 120 nM. On the same count and under the same terms, for `Nc1cnc(-c2ccc(-c3ccccc3C(=O)O)cc2F)cn1` [Example 485, 4′-(5-Aminopyrazin-2-yl)-3′-fluorobiphenyl-2-carboxylic acid] the value was greater than 10000 nM. With `NC(=O)c1ccccc1-c1ccc(-c2cnc(N)cn2)c(F)c1` [Example 486, 4′-(5-Aminopyrazin-2-yl)-3′-fluorobiphenyl-2-carboxamide], the Ki turned out to be 2500 nM. On the same count and under the same terms, for `Nc1ncc(-c2ccc(-c3ccccc3C(=O)N3CCOCC3)cc2F)cn1` [Example 499, 5-[3-Fluoro-2′-(morpholin-4-ylcarbonyl)biphenyl-4-yl]pyrimidin-2-amine] the value was 433 nM; for `C[C@H](NC(=O)c1ccccc1-c1ccc(-c2cnc(N)nc2)c(F)c1)C(F)(F)F` [Example 504, 4′-(2-Aminopyrimidin-5-yl)-3′-fluoro-N-[(1S)-2,2,2-trifluoro-1-methylethyl]biphenyl-2-carboxamide], 768 nM. Still for that read-out and setting: for `Nc1cnc(-c2ccc(-c3ccccc3C(=O)N3CCNCC3)cc2F)cn1` [Example 506, 5-[3-Fluoro-2′-(piperazin-1-ylcarbonyl)biphenyl-4-yl]pyrazin-2-amine] the value was greater than 10000 nM. Still for that read-out and setting: for `CC(=O)N1CCN(C(=O)c2ccccc2-c2ccc(-c3cnc(N)cn3)c(F)c2)CC1` [Example 507, 5-{2′-[(4-Acetylpiperazin-1-yl)carbonyl]-3-fluorobiphenyl-4-yl}pyrazin-2-amine] the value was greater than 10000 nM.

As to `Nc1cnc(-c2ccc(-c3ccccc3C(=O)NC3CCCCC3)cc2F)cn1` [Example 508, 4′-(5-Aminopyrazin-2-yl)-N-cyclohexyl-3′-fluorobiphenyl-2-carboxamide], the Ki is 790 nM.

With `CNC(=O)c1ccccc1-c1ccc(-c2cnc(N)cn2)c(F)c1` [Example 510, 4′-(5-Aminopyrazin-2-yl)-3′-fluoro-N-methylbiphenyl-2-carboxamide], affinity was put at a Ki of 1940 nM.

For `C[C@@H](CO)NC(=O)c1ccccc1-c1ccc(-c2cnc(N)cn2)c(F)c1` [Example 513, 4′-(5-Aminopyrazin-2-yl)-3′-fluoro-N-[(1S)-2-hydroxy-1-methylethyl]biphenyl-2-carboxamide], the Ki was greater than 10000 nM. Still for that read-out and setting: for `Nc1cnc(-c2ccc(-c3ccccc3C(=O)N3CCC(N)CC3)cc2F)cn1` [Example 515, 5-{2′-[(4-Aminopiperidin-1-yl)carbonyl]-3-fluorobiphenyl-4-yl}pyrazin-2-amine] the value was greater than 10000 nM; for `Nc1ncc(-c2ccc(-c3ccccc3C(=O)N3CCS(=O)(=O)CC3)cc2F)cn1` [Example 516, 5-{2′-[(1,1-Dioxidothiomorpholin-4-yl)carbonyl]-3-fluorobiphenyl-4-yl}pyrimidin-2-amine], greater than 10000 nM; for `C[C@@H](CO)NC(=O)c1ccccc1-c1ccc(-c2cnc(N)nc2)c(F)c1` [Example 517, 4′-(2-Aminopyrimidin-5-yl)-3′-fluoro-N-[(1S)-2-hydroxy-1-methylethyl]biphenyl-2-carboxamide], greater than 10000 nM.

Turning to `C[C@@H](NC(=O)c1ccccc1-c1ccc(-c2cnc(N)nc2)c(F)c1)C(F)(F)F` [Example 518, 4′-(2-Aminopyrimidin-5-yl)-3′-fluoro-N-[(1R)-2,2,2-trifluoro-1-methylethyl]biphenyl-2-carboxamide], the inhibitory constant (Ki) was greater than 10000 nM.

Compound `Nc1cnc(-c2ccc(-c3ccccc3C(=O)N3CCNC(=O)C3)cc2F)cn1` [Example 519, 4-{[4′-(5-Aminopyrazin-2-yl)-3′-fluorobiphenyl-2-yl]carbonyl}piperazin-2-one] came in with an inhibition constant (Ki) greater than 10000 nM. The compound `Nc1ncc(-c2ccc(-c3ccccc3C(=O)N3CCNC(=O)C3)cc2F)cn1` [Example 520, 4-{[4′-(2-Aminopyrimidin-5-yl)-3′-fluorobiphenyl-2-yl]carbonyl}piperazin-2-one] gave a Ki greater than 10000 nM. Same read-out and setting: for `Nc1ncc(-c2ccc(-c3ccccc3Oc3ncccn3)cn2)cn1` [Example 566, 5-{5-[2-(Pyrimidin-2-yloxy)phenyl]pyridin-2-yl}pyrimidin-2-amine] the value was greater than 10000 nM. Regarding `Nc1ncc(-c2ccc(-c3ccccc3Oc3ccnc(N)n3)cn2)cn1` [Example 567, 4-{2-[6-(2-Aminopyrimidin-5-yl)pyridin-3-yl]phenoxy}pyrimidin-2-amine], the inhibition constant Ki came to 1140 nM. In turn, `Nc1ccnc(Oc2ccccc2-c2ccc(-c3cnc(N)nc3)nc2)n1` [Example 568, 5-(5-{2-[(4-Aminopyrimidin-2-yl)oxy]phenyl}pyridin-2-yl)pyrimidin-2-amine] displayed a Ki of 2500 nM. `CN(C)S(=O)(=O)c1ccccc1-c1ccc(-c2cnc(N)cn2)cc1` [Example 572, 4′-(5-Aminopyrazin-2-yl)-N,N-dimethylbiphenyl-2-sulfonamide] gave a Ki of 370 nM. On the same count and under the same terms, for `Nc1cnc(-c2ccc(-c3ccccc3S(=O)(=O)N3CCOCC3)cc2)cn1` [Example 573, 5-[2′-(Morpholin-4-ylsulfonyl)biphenyl-4-yl]pyrazin-2-amine] the value was 114 nM.
